From a melting point compilation (Tetko et al.; mined from patent text by program, amines drawn as free bases though some values may be those of a salt)

Row | Compound | melting point [°C]
1 | CC(=O)Nc1nc2c(s1)-c1nc(N3CCCC3=O)ncc1CC2 | > 160
2 | CC(C)(C)N1C(=O)C2Cc3[nH]cnc3CN2C1=O (stereo not given) | 156 to 158
3 | CC(C)c1cc(C(=O)Nc2cccc(C(=O)O)c2)oc1C(C)C | 244 to 245
4 | CC(=O)c1c(C(=O)N(C)C)[nH]c2ccc(Cl)cc12 | 150 to 155
5 | Cc1ccc(C=CC(=O)N(C)O)cc1 | 142 to 144
6 | CSc1sc(C(=O)O)c2c1-c1nc(C)sc1CC2 | 273 to 274
7 | Cc1cc(Cl)nc(NC(=O)NS(=O)(=O)c2ccccc2OC(F)F)n1 | 190 to 191
8 | COc1ccc(C2COc3c(ccc(O)c3C)C2)cc1OC (stereo not given) | 125 to 127
9 | CCOc1ccc2nc(CO)n(C)c2n1 | 161
10 | Nc1ccnc(CSCCO)n1 | 131 to 134
11 | CSc1ccc(C(=O)N2CC2C#N)nn1 (stereo not given) | 97 to 100
12 | CC(C)(C)c1cc(CN2CC(N(O)C(=O)Oc3ccccc3)C2)cc(C(C)(C)C)c1O | 161 to 163
13 | CCCCCCC#Cc1csc(/C=C/C(=O)O)c1 | 81
14 | NC1CN(c2c(F)cc3c(=O)c(C(=O)O)cn(C4CC4)c3c2F)C1 | 214 to 216
15 | CCOC(=O)C1C2OC3COC(C)(C)OC3C(OC)C21 (stereo not given) | 65 to 68
16 | CC1(C)CN(CCO)C(=O)C(C)(C)N1 | 91 to 93
17 | COc1ccc(NC(=O)c2ccc(F)c(F)c2)cc1N | 148 to 151
18 | CCCc1c(C(=O)C(C)C)c2ccc(CC(N)=O)cc2n1Cc1cc2c(cc1Cl)OCO2 | 136 to 138
19 | CCn1c(=O)c2c(nc(/C=C/c3ccc(F)c(Br)c3)n2C)n(CC)c1=O | 218 to 219
20 | CCOC(=O)c1c(Cl)nc(-c2cccc([N+](=O)[O-])c2)c([N+](=O)[O-])c1C(=O)OCC | 90 to 91

Row | Compound | melting point [°C]
21 | O=c1ccc2c(-n3cccn3)nccc2[nH]1 | > 300
22 | Cc1ccc(-n2ncc(-c3ccc(S(C)(=O)=O)cc3)cc2=O)cc1 | 190 to 192
23 | COC(=O)c1csc(-c2ccc(F)cc2)n1 | 103 to 105
24 | Ic1cnc(-c2ccccn2)[nH]1 | 175 to 179
25 | Cn1cc2c(=O)[nH]c(=O)[nH]c2n1 | 200
26 | CSc1cc(C=O)nn1C | 47 to 48
27 | CCC(C)n1ccnc1S (stereo not given) | 108 to 121
28 | CCCCCCSc1cc(SCCCCCC)c2ccc3c(SCCCCCC)cc(SCCCCCC)c4ccc1c2c43 | 92
29 | O=c1ccc(-c2cc(Cl)c(O)c(Cl)c2)n[nH]1 | > 300
30 | COc1cc(C(C)C)ccc1C1(O)C(=O)c2c(NC(C)=O)ccc([N+](=O)[O-])c2C1=O (stereo not given) | 110 to 115
31 | CNC(=O)Oc1c(C)ccc2c1CC(C)C2(C)C (stereo not given) | 110
32 | CC(C)(C)OC(=O)N[C@]1(C)CC[C@H](CS(=O)(=O)c2ccc(S(C)(=O)=O)cc2)C1(C)C | 200 to 203
33 | O=C1NCN2c3ccc([N+](=O)[O-])cc3Sc3cccc1c32 | 205 to 208
34 | CC(=O)OCc1ncc2n1-c1ccc(Cl)cc1C(c1ccccc1F)=NC2 | 151 to 152
35 | OC(COCc1cccnc1)c1ccc2occc2c1 (stereo not given) | 85 to 86
36 | O=c1ccn(-c2cccc(C(F)(F)F)c2)nc1-c1ccsc1-c1ccccc1 | 167 to 168
37 | CC(C)(C)CC(C)(C)c1ccc2c(c1)C(=O)NS2(=O)=O | 213 to 215
38 | COC(=O)c1ccc2c(CBr)csc2c1 | 108 to 110
39 | CCCCCCCCCCCCCCCC(=O)OC(CCCCCCCCCCCCCC)C(=O)N[C@H](C(=O)N[C@@H](CCC(=O)O)C(=O)O)C(C)C (stereo not given in full) | 101 to 103
40 | CCOC(=O)C(C)=Cc1ccc2cc[nH]c2c1 | 88 to 91

Row | Compound | melting point [°C]
41 | CCOc1ccccc1CS(N)(=O)=O | 92 to 93
42 | N[C@H]1CCN(C(=O)c2cc(C(F)(F)F)cc(C(F)(F)F)c2)[C@H](Cc2ccc(Cl)cc2)C1 | 79 to 81
43 | CCCCCCc1nc(C(C)=O)c[nH]1 | 104 to 106
44 | CCOC(=O)C=C(c1ccc(Br)s1)c1ccc(Br)s1 | 69 to 70
45 | CC(C)C(=O)N[C@@H](CSC(=O)c1ccccc1)C(=O)NCCSC(=O)C(C)(C)C | 123 to 124
46 | CC(=O)N1CC(C)(C)CN=C1N(N=CC(C=Cc1ccc(C(F)(F)F)cc1)=Cc1ccc(C(F)(F)F)cc1)C(C)=O | 70 to 72
47 | CC12CCC3C(CCC4CC=CCC43C)C1CC=C2Br (stereo not given) | 76 to 77
48 | CCOc1cc(C=[N+]([O-])C2CCC2)ccc1OC | 113
49 | Cc1c(C(F)(F)F)nc2c(C(F)(F)F)cccc2c1Br | 81.9 to 82.3
50 | O=C(O)c1ccc(NC(=O)c2ccc(F)cc2)cc1 | > 300
51 | NS(=O)(=O)CC(=O)c1ccccc1 | 97 to 99
52 | CCOC(=O)Cc1cc(O)nc(N(CC)CC)n1 | 98 to 100
53 | ClC(Cl)(Cl)C1NCC(c2ccccc2)O1 (stereo not given) | 58 to 64
54 | O=C1c2cccc3c4c(cc(c23)C(=O)N1O)COCO4 | 314 to 315
55 | C=CCn1c(Oc2cnn(-c3c(Cl)cc(C(F)(F)F)cc3Cl)n2)nc(C#N)c1C#N | 121 to 131
56 | CCOC(=O)c1cn(-c2cc(NC(=O)OC(C)(C)C)c(F)cc2F)c2cc(F)c(C)cc2c1=O | 205 to 207
57 | COc1cc2cc(C(C#N)(C(C)CC#N)N3CCOCC3)sc2cc1OC (stereo not given) | 162 to 165
58 | CC(C)CCCC(C)C1CCC2C3=C(CCC21C)C1(C)CCC(O)CC1CC3=O (stereo not given) | 115 to 117

Second part, the compound after the results:

Row | melting point [°C] | Compound
59 | 82 to 87 | CC(C)CCOC(=O)C(O)C(CC(C)C)NC(=O)C(Cc1c[nH]cn1)NC(=O)C(CC(=O)NCCc1ccccc1)Cc1cccc2ccccc12 (mixture of isomers)
60 | 240 | O=C(NC(=S)Nc1ccc(Cl)c(Cl)c1)c1c(Cl)cccc1Cl
61 | 100 to 104 | O=C(c1ccccc1)c1cccc2cc[nH]c12
62 | 160 to 161 | CC(C)CCCC(C)C1CCC2C3=CCC4C(C)(C)C(OC(=O)c5ccccc5)CCC4(C)C3CCC21C (stereo not given)
63 | 165 to 169 | CCOC(=O)C1(NS(=O)(=O)c2ccc3c(Cl)cnc(NC(=N)N)c3c2)CCC1
64 | 112 to 113 | O=C(Cc1ccc(OCc2ccccc2)cc1)P(=O)(O)O
65 | 69 | Cc1nc(COc2cccc(Cl)c2C)no1
66 | 216 to 220 | CCOC(=O)c1cnc(N(C)Cc2cc3nc(-c4cccc(OCCO)c4)nc(N4CCOCC4)c3s2)nc1
67 | 142 to 144 | COc1ccc(C(C#Cc2ccccc2)CC(N)=O)cc1OC1CCCC1 (racemic)
68 | 160 | c1ccc2c(c1)OC[C@H](CN1CCC(CNc3nc4cccnc4s3)CC1)O2
69 | 117 to 118 | CC(C)(O)Cc1ccc(NC(=O)OCc2ccccc2)cc1
70 | 104 to 105 | CN(C=O)c1ccc(C2OC(C)(C)N=C2c2ccccc2)cc1 (stereo not given)
71 | 228 to 229 | CCCCc1ncc(/C=C(\C)C(=O)O)n1Cc1ccccc1Cl
72 | 118 to 120 | Fc1ccc2c(N3CCN(CCCCn4cc5ccccc5c4)CC3)csc2c1
73 | 101 to 103 | CCCC(=O)c1cnc2c(OCCCN3CCCC3)cccc2c1Nc1ccccc1C
74 | 82 to 85 | CN1C(=O)C(Cc2ccccc2)Oc2ccc(N)cc21 (stereo not given)
75 | 177 to 179 | CCc1nc2c(C)cc(C)nc2n1Cc1ccc2c(c1)CCc1ccccc1N2Cc1nnn[nH]1
76 | 61 to 63 | COc1ccc(CCOc2ccc(C(=O)N/C(=C\c3ccc(SC)cc3)C(=O)NCCO)cc2)cc1
77 | 183 to 184 | COC(=O)C1C(=O)Nc2ccc(C(F)(F)F)cc2CC1c1ccccc1Cl (stereo not given)
78 | 164 to 166 | O=c1ccc2cc(OCc3cn(-c4ccccc4Cl)nn3)ccc2o1
79 | 154 to 155 | Cc1oc(-c2ccccc2)nc1COc1ccc(COc2cc(CCC(=O)O)n(-c3ccccc3)n2)cc1

Row | melting point [°C] | Compound
80 | 103 to 104 | Oc1cccnc1SCc1ccccc1
81 | 285 | COc1cccc(N2CCN(c3cc4c(cc3F)ncc3c4c(=O)c(C(=O)O)cn3C)CC2C)c1 (stereo not given)
82 | 100 to 104 | Cc1ccc(Cc2cnc(NCCCN(Cc3cccc(Cl)c3)c3ccccn3)[nH]c2=O)cn1
83 | 108 to 109 | CCOC(=O)c1ccc(-c2nc(COc3ccc(CO)cc3OC)c(C)o2)s1
84 | 123 to 124 | CSCCNC(=O)c1cccc(-c2cccc(Oc3cc(Cl)cc(Cl)c3)n2)c1
85 | 159 to 160 | CS(=O)(=O)c1ccc(Oc2cc(OCc3ccccc3)c3[nH]c(-c4nnc(CO)s4)cc3c2)cc1
86 | 238 to 240 | CCCOc1ccccc1-c1[nH]c(=O)c(C(N)=O)cc1C
87 | 238 to 239 | CC1(C)CCc2c(N3CCOCC3)nc3sc4c(NCCc5ccccn5)ncnc4c3c2C1
88 | 106 to 108 | CCN(CC)CCOc1ccc(Nc2ncc3c(n2)N(c2ccccc2)C(=O)N(c2ccc(Cl)cc2Cl)C3)cc1
89 | 165 to 166 | CN(C)c1ccc(C2(CNC(=O)Nc3c(F)cc(F)cc3CCc3cc(C(C)(C)C)c(O)c(C(C)(C)C)c3)CCCC2)cc1
90 | 205 | O=C1NC(=NC2CCCCC2)C(c2ccc(Br)cc2)N1c1ccc2[nH]cnc2c1 (stereo not given)
91 | 160 to 169 | O=C(Nc1ccc(N2CCC(NC[C@H](O)COc3cccc4[nH]c(=O)[nH]c34)CC2)cc1)c1ccc2c(c1)OCO2
92 | 102 to 103 | C=CCOc1ccc(C(=O)C=Cc2c(OC)cccc2OC)cc1
93 | 75 to 76 | CCc1nc(-c2cccc(C)c2)c(-c2ccnc(N(C)C(=O)Cc3ccccc3)c2)s1
94 | 264 to 265 | Nc1cc(C(=O)O)cc(S(N)(=O)=O)c1Oc1ccc(OCc2ccccc2)cc1
95 | 96 to 97 | Cn1ncc2c1-c1c(Cc3ccccc3)sc(C(N)=O)c1CC2
96 | 196 | CCC1CC(=O)N(CCc2ccc(NC(=O)c3ccno3)cc2)N=C1c1ccc(OC)c(OC)c1 (stereo not given)
97 | 235 | CCOc1cc(-c2cc(C(F)(F)F)n3ncc(C(=O)Nc4cccc(S(=O)(=O)N5CCOCC5)c4)c3n2)ccc1C(F)(F)F
98 | 142 to 143 | Cc1cc(SCc2ccc(OCc3ccc(C(F)(F)F)cc3)cc2)c(Cl)cc1OCC(=O)O
99 | > 260 | O=C(O)c1cnc(N2CCC(NS(=O)(=O)c3ccc4ccccc4c3)CC2)nc1
100 | 157 to 158 | O=C(O)C1=NN(c2cccc(Cl)c2)C(c2ccccc2)CC1 (stereo not given)
